Laboratory results from ChEMBL document CHEMBL1141226, “Discovery of a potent, orally available, and isoform-selective retinoic acid beta2 receptor agonist” (J Med Chem, 2005).
pEC50: −log10 of the molar value. Converted amounts (≈) assume the structure as drawn. The source made the active and inactive calls. The rule behind the calls is not given here.

Experiments:
[1] = target: T1, Retinoic acid receptor beta (Homo sapiens) (UniProt P10826); test: Efficacy against RARbeta2
T1 sequence (whole entry): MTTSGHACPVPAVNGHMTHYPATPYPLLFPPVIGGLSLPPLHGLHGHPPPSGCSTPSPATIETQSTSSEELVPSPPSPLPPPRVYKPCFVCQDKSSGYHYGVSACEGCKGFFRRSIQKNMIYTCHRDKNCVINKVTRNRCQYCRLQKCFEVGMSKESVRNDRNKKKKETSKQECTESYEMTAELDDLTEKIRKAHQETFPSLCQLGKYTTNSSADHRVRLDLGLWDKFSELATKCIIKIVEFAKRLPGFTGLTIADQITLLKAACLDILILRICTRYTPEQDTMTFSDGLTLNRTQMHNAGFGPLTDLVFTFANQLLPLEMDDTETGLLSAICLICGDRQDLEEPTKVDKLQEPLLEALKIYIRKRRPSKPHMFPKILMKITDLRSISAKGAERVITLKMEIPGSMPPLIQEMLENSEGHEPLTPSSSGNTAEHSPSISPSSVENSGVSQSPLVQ

[2] = target: T2, Retinoic acid receptor beta (Homo sapiens, UniProt P10826); test: Transcriptional activity against RARbeta2; format: functional
T2 sequence (P10826 whole entry): T1 sequence (whole entry)

[3] = target: T1, Retinoic acid receptor beta (Homo sapiens); test: Efficacy against RARbeta1
[4] = target: T2, Retinoic acid receptor beta; test: Transcriptional activity against RARbeta1; format: functional
[5] = test system: MCF7; test: Inhibition of DNA synthesis in MCF7 cells by [3H]thymidine incorporation; format: functional, cell-based; conditions: Homo sapiens
[6] = Solubility at pH 7.4; format: physicochemical; conditions: buffer
[7] = Oral bioavailability in Rats; format: ADME, organism-based; conditions: rat, in vivo
[8] = Partition coefficient of the compound, log P; format: physicochemical; conditions: octanol/water
[9] = Distribution coefficient of the compound, log D; format: physicochemical; conditions: octanol/water

| Efficacy [1] | pEC50 [2] | Efficacy [3] | pEC50 [4] | solubility [6] [µg/mL] | bioavailability [7] [%] | logP [8] | logD [9] | SMILES | Activity [5] |
| --- | --- | --- | --- | --- | --- | --- | --- | --- | --- |
| 37% | 7.30 | inactive | < 5.00 |  |  |  |  | CCCCCCc1ccc(-c2ccc(C(=O)O)cc2)cc1 |  |
| 36% | 7.20 | inactive | < 5.00 |  |  |  |  | CCCCc1ccc(-c2ccc(C(=O)O)cc2)cc1 |  |
| 100% | 7.80 | 58% | 6.50 |  |  |  |  | CCCCCCCCCc1ccc(-c2ccc(C(=O)O)cc2)cc1 |  |
| inactive |  | inactive |  |  |  |  |  | CCCc1ccc(-c2ccc(C(=O)O)cc2)cc1 |  |
| 92% | 6.90 | 31% | < 5.00 | < 1 |  |  |  | CCCCCCCCc1ccc(-c2ccc(C(=O)O)cc2)cc1 | Active |
| 64% | 7.60 | inactive | < 5.00 |  |  |  |  | CCCCCCCc1ccc(-c2ccc(C(=O)O)cc2)cc1 |  |
| 100% |  |  |  |  |  |  |  | CC1(C)CCC(C)(C)c2cc(C(=O)Nc3ccc(C(=O)O)cc3)ccc21 |  |
| 38% | 7.80 | inactive | < 5.00 |  |  |  |  | CCCCCc1ccc(-c2ccc(C(=O)O)cc2)cc1 |  |
| 96% |  | 40% |  | 4800 (≈ 13.6 mM) | 52 | 5.1 | 1.4 | CCCCOCCOc1nc(-c2ccc(C(=O)O)c(F)c2)sc1C |  |
| inactive |  | inactive |  |  |  |  |  | CCc1ccc(-c2ccc(C(=O)O)cc2)cc1 |  |
